Data as given in article PMC7736581, “Activation of the IRE1 RNase through remodeling of the kinase front pocket by ATP-competitive ligands” (Nature Communications, 2020).

What was measured:
Test in all cases: biochemical
Parameters in all cases: Invitrogen kinase panel: Z'Lyte activity (ATP at Km) or LanthaScreen competitive ATP-site binding, percent inhibition
BTK = BTK (Homo sapiens, UniProt Q06187)
CHK1 = molecular target: T1, CHK1 (Homo sapiens, UniProt O14757)
T1 construct: gene CHEK1
T1 sequence (O14757 1-476): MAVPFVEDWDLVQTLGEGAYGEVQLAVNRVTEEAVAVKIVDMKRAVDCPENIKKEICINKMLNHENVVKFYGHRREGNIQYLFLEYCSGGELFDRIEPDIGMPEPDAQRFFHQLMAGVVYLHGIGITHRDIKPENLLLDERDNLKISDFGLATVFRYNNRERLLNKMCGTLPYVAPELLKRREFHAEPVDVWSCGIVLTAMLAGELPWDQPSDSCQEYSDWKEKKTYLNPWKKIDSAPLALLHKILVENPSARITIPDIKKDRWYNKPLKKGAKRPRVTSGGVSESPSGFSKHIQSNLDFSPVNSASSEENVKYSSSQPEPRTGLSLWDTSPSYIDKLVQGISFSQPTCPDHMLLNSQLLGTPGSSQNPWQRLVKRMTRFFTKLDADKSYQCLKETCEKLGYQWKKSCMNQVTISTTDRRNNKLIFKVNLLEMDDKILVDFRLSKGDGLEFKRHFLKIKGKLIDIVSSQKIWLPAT

IRAK4 = molecular target: T2, IRAK4 (Homo sapiens, UniProt Q9NWZ3)
T2 sequence (Q9NWZ3 1-460): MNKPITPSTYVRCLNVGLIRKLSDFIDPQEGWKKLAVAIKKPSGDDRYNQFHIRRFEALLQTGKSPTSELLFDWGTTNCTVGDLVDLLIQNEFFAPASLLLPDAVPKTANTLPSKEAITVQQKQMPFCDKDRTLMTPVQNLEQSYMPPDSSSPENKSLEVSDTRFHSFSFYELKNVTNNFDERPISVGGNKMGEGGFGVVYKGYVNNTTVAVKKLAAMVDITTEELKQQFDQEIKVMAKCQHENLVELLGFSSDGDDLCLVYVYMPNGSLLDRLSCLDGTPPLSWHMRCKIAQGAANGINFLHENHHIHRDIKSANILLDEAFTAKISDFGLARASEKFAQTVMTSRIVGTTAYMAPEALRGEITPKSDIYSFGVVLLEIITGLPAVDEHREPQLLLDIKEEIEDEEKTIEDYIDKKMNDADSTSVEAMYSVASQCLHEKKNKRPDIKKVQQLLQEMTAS

PKD1 = molecular target: T3, PKD1 (Homo sapiens, UniProt Q15139)
T3 construct: gene PRKD1
T3 sequence (Q15139 1-912): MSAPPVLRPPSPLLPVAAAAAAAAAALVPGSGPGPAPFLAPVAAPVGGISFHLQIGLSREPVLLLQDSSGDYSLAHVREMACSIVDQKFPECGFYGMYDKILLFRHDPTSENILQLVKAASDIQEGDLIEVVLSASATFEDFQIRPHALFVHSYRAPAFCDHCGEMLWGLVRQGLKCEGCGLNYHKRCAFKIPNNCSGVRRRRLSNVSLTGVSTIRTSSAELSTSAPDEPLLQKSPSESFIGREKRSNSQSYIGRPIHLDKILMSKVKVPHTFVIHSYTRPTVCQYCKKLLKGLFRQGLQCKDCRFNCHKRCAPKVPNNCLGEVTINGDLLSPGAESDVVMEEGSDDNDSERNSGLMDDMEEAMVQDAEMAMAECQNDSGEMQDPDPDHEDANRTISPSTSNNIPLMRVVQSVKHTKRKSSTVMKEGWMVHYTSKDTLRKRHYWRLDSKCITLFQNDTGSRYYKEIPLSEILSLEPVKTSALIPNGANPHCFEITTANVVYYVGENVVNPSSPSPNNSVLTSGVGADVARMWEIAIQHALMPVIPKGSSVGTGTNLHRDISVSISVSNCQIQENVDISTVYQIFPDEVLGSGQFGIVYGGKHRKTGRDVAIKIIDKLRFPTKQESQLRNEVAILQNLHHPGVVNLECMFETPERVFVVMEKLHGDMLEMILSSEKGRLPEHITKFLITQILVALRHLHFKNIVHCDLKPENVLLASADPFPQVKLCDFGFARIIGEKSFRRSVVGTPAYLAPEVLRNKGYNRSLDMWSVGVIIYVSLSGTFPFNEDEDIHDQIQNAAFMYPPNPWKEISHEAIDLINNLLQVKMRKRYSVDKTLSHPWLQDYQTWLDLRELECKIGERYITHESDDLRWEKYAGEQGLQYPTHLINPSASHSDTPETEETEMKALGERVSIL

PhK_gamma1 = molecular target: T4, PhK_gamma1 (Homo sapiens, UniProt Q16816)
T4 construct: gene PHKG1
T4 sequence (Q16816 whole entry): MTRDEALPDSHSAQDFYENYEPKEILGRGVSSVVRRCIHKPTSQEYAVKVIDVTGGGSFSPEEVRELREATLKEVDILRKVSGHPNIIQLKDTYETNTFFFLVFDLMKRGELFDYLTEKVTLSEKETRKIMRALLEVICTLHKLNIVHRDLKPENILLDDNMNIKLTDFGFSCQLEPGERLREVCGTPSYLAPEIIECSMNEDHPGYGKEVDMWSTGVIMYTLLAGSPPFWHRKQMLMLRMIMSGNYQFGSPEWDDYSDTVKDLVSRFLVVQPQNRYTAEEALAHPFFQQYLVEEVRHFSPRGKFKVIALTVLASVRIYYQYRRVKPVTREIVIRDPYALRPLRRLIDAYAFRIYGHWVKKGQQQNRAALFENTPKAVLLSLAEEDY

Srm = molecular target: T5, Srm (Homo sapiens, UniProt Q9H3Y6)
T5 construct: gene SRMS
T5 sequence (Q9H3Y6 whole entry): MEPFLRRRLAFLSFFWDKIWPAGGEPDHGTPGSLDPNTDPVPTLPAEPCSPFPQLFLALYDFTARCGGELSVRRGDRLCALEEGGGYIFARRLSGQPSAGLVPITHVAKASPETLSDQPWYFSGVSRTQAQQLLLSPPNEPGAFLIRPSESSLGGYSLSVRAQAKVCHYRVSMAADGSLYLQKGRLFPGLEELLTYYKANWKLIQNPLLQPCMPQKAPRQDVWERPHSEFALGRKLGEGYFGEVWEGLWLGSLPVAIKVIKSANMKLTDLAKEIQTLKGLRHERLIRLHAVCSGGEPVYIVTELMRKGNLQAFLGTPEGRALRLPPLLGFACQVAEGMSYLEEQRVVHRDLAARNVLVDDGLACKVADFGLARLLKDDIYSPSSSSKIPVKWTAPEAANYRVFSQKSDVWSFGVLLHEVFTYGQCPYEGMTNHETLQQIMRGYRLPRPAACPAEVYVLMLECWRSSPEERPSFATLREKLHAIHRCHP

Chain of BTK (Q06187 whole entry): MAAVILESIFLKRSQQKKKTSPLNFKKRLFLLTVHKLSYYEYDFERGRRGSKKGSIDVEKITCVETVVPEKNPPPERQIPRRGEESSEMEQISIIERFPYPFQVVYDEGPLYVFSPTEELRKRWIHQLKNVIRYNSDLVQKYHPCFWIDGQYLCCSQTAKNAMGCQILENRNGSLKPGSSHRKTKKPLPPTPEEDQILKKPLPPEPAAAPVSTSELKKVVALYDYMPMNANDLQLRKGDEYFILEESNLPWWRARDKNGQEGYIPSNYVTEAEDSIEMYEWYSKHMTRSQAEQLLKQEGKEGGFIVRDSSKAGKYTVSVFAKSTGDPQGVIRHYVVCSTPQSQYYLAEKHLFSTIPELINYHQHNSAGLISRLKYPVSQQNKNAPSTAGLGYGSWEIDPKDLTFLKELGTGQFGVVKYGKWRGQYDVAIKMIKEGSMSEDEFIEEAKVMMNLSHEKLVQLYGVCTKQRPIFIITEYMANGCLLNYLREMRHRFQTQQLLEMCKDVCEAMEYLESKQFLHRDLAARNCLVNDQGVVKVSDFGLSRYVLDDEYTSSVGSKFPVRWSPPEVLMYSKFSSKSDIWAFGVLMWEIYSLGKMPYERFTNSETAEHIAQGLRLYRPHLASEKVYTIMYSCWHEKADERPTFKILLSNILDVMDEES

Row | inhibition at 1 µM (BTK) [%] | inhibition at 1 µM (CHK1) [%] | inhibition at 1 µM (IRAK4) [%] | inhibition at 1 µM (PKD1) [%] | inhibition at 1 µM (PhK_gamma1) [%] | inhibition at 1 µM (Srm) [%] | Structure (SMILES)
1 | 5.5 | 4 | -1 | 31 | 1 | 3 | CC#CC(=O)Nc1cccc2c(Oc3ncccc3-c3ccnc(N[C@H]4CCCNC4)n3)c(C)ccc12 [G-7658]
2 | 35.9 | 94.8 | 96.3 | 97.5 | 92.2 | 67.6 | O=c1cc(-c2n[nH]c3ncc(-c4c(F)cccc4F)cc23)nc(N2CCC(O)CC2)[nH]1 [G-9807]

Row | Structure (SMILES) | inhibition at 1 µM (BTK) [%] | inhibition at 1 µM (CHK1) [%] | inhibition at 1 µM (IRAK4) [%] | inhibition at 1 µM (PKD1) [%] | inhibition at 1 µM (PhK_gamma1) [%] | inhibition at 1 µM (Srm) [%]
3 | CCOC(=O)Nc1cccc2c(Oc3ncccc3-c3ccnc(N[C@H]4CCCNC4)n3)c(C)ccc12 [G-1749] | 1.5 | 7.5 | 8 | 33.5 | 2 | -4.5
